According to article PMC9505659, “Mixture Effects of Tryptophan Intestinal Microbial Metabolites on Aryl Hydrocarbon Receptor Activity” (International Journal of Molecular Sciences, 2022):
Where two headings read alike, the source gives them in different places.

How the values were obtained:
AHR [1] = test system: AHR; design: method as in PMID 32283770; settings: reporter hepatic cell line, 24 h of incubation; cited from earlier work
AHR [2] = biological target: T1, AHR (Homo sapiens, UniProt P35869); test: High-throughput AHR reporter gene assay in AZ-AHR cells;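 also: luciferase activity measured in lysed AZ-AHR reporter cells after 4 h compound exposure, with 0.1% DMSO as vehicle control and 5 nM TCDD as reference agonist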
T1 sequence (P35869 11-848): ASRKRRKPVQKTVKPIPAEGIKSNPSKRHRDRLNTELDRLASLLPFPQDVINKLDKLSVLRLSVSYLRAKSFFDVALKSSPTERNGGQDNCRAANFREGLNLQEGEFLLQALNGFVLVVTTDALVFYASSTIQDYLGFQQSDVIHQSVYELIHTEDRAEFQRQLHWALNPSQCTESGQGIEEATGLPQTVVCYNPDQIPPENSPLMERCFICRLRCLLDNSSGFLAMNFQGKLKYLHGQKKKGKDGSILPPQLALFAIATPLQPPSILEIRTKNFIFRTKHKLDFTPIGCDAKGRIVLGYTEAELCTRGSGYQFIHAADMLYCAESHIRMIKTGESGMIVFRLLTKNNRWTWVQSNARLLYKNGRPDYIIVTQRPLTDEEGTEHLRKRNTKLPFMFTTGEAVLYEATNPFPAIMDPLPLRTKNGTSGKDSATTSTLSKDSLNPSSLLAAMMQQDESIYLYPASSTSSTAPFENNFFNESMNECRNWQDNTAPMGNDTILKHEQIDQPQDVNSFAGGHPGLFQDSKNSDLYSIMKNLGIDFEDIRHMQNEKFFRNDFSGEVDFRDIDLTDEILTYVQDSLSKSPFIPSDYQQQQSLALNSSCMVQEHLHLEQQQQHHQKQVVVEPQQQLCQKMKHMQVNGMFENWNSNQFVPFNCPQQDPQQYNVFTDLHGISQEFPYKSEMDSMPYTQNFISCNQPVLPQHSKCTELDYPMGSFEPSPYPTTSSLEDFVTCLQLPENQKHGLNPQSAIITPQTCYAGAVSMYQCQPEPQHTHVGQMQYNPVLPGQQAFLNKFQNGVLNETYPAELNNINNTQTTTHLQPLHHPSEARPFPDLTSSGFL
Procedure: (§2) After 24 h of incubation, the cells were treated with the reference (5 nM TCDD) and tested compounds using a contact-free acoustic liquid handler ECHO 550 (Labcyte, San Jose, CA, USA). […] The cells were incubated with the tested compounds for 4 h. Thereafter, the cells were washed with PBS by Washer EL406 (BioTek, Winooski, VT, USA) and lysed by 1x gene reporter lysis buffer (E3971, Promega). After adding the substrate (D-Luciferin, L9504, Sigma) with a dispenser Multidrop Combi (ThermoFisher Scientific), the luciferase activity was measured on a multimode plate reader EnVision (PerkinElmer). The experiments were performed in technical duplicates and three biological replicates at least.

AHR [3] = biological target: T1, AHR
Procedure: as §2

[4] = biological target: glucocorticoid receptor (GR) (Homo sapiens, UniProt P04150); test: cell-based
Text: (§1) The human colon adenocarcinoma cell line LS174T was purchased from the American Type Culture Collection (ATCC). The following stably transfected reporter gene cell lines were used to estimate specific receptor activation: AZ-AHR (derived from the human hepatocellular carcinoma cell line HepG2), LS174T-AHR-luc (harboring the reporter plasmid pGL-4.27-DRE and prepared by the same protocol as AZ-AHR, AZ-GR (derived from the human cervix carcinoma cell line HeLa)), and IZ-VDRE (derived from the human colon adenocarcinoma cell line LS180). Cells were cultured in Dulbecco’s modified Eagle’s medium supplemented with 10% fetal bovine serum, 4 mM L-glutamine, 1% nonessential amino acids and antibiotics, and 100 U/mL Penicillin-Streptomycin. AIZ-AR (derived from the human prostate carcinoma cell line 22RV1) was cultivated in RPMI-1640 medium supplemented with 10% charcoal-stripped fetal bovine serum, 4 mM L-glutamine, and antibiotics 100 U/mL Penicillin-Streptomycin. PAZ-PPARg (derived from the human bladder carcinoma cell line T24/83) was cultivated in Dulbecco’s modified Eagle’s medium supplemented with 10% charcoal-stripped fetal bovine serum, 4 mM L-glutamine and antibiotics, and 100 U/mL Penicillin-Streptomycin. Cells were maintained in 75 cm^2 plastic tissue culture flasks and subcultured twice a week.

AHR [5] = biological target: T1, AHR; test: AHR luciferase reporter assay in LS174T-AHR-luc cells; assay type: cell-based; design: endogenous in cells; settings: IND 274 µM (highest applied concentration), 4 h, TCDD 20 nM
Text: as §1

AZ-AHR cells = test: Cell viability assays (MTT, neutral red, LDH) in AZ-AHR cells; assay type: cell-based, human; settings: 24 h, 2.5 and 5 mM
Procedure: The highest concentrations of the tested compounds were adjusted based on their solubility. […] The MTT (3-(4,5,-dimethylthiazol-2-yl)-2,5-diphenyltetrazolium bromide) colorimetric assay was performed as previously described. The neutral red assay and LDH (Abcam, Cambridge, UK) assays were performed according to the manufacturer’s protocol. Assays were measured spectrophotometrically using a Tecan Infinite M200 plate reader (Tecan, Männedorf, Switzerland).

AHR [6] = biological target: T1, AHR; design: AZ-AHR (derived from the human hepatocellular carcinoma cell line HepG2); endogenous in cells; host or cells: AZ-AHR (HepG2 stably transfected with a reporter); method as in PMID 26235394; settings: 4 h of incubation, human hepatic HepG2 (40/6) reporter cells; cited from earlier work
vitamin D receptor (VDR) = biological target: T2, vitamin D receptor (VDR) (Homo sapiens, UniProt P11473); test: Nuclear receptor counter-screen, luciferase reporter assay IZ-VDRE cells; assay type: cell-based; settings: VD3 75 nM, 24 h
T2 construct: IZ-VDRE (derived from the human colon adenocarcinoma cell line LS180); endogenous in cells; host or cells: IZ-VDRE (LS180 stably transfected reporter line)
T2 sequence (P11473 1-427): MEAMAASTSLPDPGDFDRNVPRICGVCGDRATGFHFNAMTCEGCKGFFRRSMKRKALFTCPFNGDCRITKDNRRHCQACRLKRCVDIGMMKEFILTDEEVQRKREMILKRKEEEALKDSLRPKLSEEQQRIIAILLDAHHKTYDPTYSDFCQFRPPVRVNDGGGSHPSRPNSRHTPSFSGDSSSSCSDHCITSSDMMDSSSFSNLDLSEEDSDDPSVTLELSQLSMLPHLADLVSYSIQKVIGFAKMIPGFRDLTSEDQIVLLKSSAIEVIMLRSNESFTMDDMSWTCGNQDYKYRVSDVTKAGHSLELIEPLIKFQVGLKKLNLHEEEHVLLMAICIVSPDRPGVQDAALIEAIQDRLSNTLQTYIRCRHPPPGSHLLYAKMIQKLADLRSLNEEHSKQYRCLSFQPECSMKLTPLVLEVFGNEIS
Procedure: (§3) The following stably transfected reporter gene cell lines were used to estimate specific receptor activation: AZ-AHR (derived from the human hepatocellular carcinoma cell line HepG2) [41], LS174T-AHR-luc (harboring the reporter plasmid pGL-4.27-DRE and prepared by the same protocol as AZ-AHR, AZ-GR (derived from the human cervix carcinoma cell line HeLa)) [42], and IZ-VDRE (derived from the human colon adenocarcinoma cell line LS180) [43]. Cells were cultured in Dulbecco’s modified Eagle’s medium supplemented with 10% fetal bovine serum, 4 mM L-glutamine, 1% nonessential amino acids and antibiotics, and 100 U/mL Penicillin-Streptomycin. […]
(§4) The reporter cells were seeded into 96-well plates at a density of 2.5 × 10^4 (AZ-AHR, LS174T-AHR-luc, IZ-VDRE), 5 × 10^4 (AIZ-AR), 2.2 × 10^4 (AZ-GR), or 4 × 10^4 (PAZ-PPARg) cells in 0.2 mL of culture medium. […] After treatment, cells were lysed in a lysis buffer and the luciferase activity was measured in a 96-well plate format using the Nano-Glo Luciferase AssaySystem for the PAZ-PPARg and IZ-VDRE cell lines and the Luciferase AssaySystem for the AZ-AHR, LS174T-AHR-luc, AIZ-AR, and AZ-GR cell lines on a Tecan Infinite M200 Pro Plate Reader (Tecan, Männedorf, Switzerland).

androgen receptor (AR) = settings: DHT 100 nM, 24 h
Procedure: The human colon adenocarcinoma cell line LS174T was purchased from the American Type Culture Collection (ATCC). […] Cells were cultured in Dulbecco’s modified Eagle’s medium supplemented with 10% fetal bovine serum, 4 mM L-glutamine, 1% nonessential amino acids and antibiotics, and 100 U/mL Penicillin-Streptomycin. […] PAZ-PPARg (derived from the human bladder carcinoma cell line T24/83) was cultivated in Dulbecco’s modified Eagle’s medium supplemented with 10% charcoal-stripped fetal bovine serum, 4 mM L-glutamine and antibiotics, and 100 U/mL Penicillin-Streptomycin. Cells were maintained in 75 cm^2 plastic tissue culture flasks and subcultured twice a week.

[7] = biological target: T3, peroxisome proliferator-activated receptor gamma (PPARγ) (Homo sapiens, UniProt P37231); test: Nuclear receptor counter-screen, luciferase reporter assay PAZ-PPARg cells; assay type: cell-based; settings: 15d-PGDJ 40 µM, 24 h
T3 construct: PAZ-PPARg (derived from the human bladder carcinoma cell line T24/83); endogenous in cells; host or cells: PAZ-PPARg (T24/83 stably transfected reporter line)
T3 sequence (P37231 1-505): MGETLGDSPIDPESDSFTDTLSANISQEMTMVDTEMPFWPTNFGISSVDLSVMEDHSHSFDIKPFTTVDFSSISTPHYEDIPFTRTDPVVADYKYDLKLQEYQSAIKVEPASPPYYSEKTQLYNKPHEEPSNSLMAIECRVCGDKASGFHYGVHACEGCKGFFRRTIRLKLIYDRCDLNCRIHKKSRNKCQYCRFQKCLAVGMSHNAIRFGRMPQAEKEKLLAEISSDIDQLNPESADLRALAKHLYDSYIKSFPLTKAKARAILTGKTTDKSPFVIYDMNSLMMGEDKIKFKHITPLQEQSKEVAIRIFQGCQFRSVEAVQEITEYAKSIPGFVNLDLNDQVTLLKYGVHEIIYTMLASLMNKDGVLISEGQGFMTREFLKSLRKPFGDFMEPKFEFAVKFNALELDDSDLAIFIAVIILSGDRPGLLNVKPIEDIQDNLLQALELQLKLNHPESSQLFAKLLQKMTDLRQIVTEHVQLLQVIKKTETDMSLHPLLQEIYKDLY
Procedure: as §3, §4

[8] = AZ-AHR cells, 4 h, luciferase activity by MICT in highest concentration / by 5 nM TCDD

Chain of glucocorticoid receptor (GR) (P04150 whole entry): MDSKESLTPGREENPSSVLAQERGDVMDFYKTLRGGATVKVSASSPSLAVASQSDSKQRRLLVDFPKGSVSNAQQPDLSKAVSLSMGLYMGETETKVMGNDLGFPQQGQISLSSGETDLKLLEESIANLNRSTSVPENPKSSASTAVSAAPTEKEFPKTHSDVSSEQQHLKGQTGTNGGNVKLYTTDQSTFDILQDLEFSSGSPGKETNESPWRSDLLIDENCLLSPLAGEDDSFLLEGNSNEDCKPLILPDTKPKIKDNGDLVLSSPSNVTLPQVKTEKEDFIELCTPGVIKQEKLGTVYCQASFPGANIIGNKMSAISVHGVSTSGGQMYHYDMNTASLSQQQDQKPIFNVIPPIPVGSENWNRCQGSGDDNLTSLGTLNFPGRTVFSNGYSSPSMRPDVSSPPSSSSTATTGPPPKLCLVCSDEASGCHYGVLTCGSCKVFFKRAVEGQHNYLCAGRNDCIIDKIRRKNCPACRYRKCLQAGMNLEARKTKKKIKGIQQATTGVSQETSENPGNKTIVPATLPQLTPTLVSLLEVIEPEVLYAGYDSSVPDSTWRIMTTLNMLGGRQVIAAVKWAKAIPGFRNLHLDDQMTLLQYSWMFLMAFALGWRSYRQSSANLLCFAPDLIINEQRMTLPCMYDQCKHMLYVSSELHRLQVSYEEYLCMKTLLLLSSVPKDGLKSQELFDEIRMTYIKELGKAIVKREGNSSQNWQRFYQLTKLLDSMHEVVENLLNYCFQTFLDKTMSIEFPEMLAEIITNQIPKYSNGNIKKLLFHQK

Row | Structure (SMILES) | AHR agonist efficacy class (AHR [1]) | EC50 (AHR [2]) [µM] | efficacy class of AHR agonist based on magnitude of luciferase induction (AHR [2]; AZ-AHR cells, 4 h) | other results
1 | O=Cc1c[nH]c2ccccc12 [IA, Indole-3-aldehyde] | no or low efficacy | 18.9 ± 3.9 | low | relative efficacy, % of maximal induction to TCDD (AHR [2]; [8]): ≈ 25%
2 | NCCc1c[nH]c2ccccc12 [TA, tryptamine] | medium efficacy | 13.8 |  | efficacy class of AHR agonist based on magnitude of luciferase induction (AHR [2]): medium
3 | O=C(O)CCc1c[nH]c2ccccc12 [IPA, indole-3-propionate] | no or low efficacy |  |  | EC50 (AHR [3]): 48.1 ± 15.2 µM; efficacy class of AHR agonist based on magnitude of luciferase induction (AHR [2]): low; relative efficacy, % of maximal induction to TCDD (AHR [2]): ≈ 25%
4 | O=C(O)/C=C/c1c[nH]c2ccccc12 [IAC, indole-3-acrylate] | medium efficacy |  | high | EC50 (AHR [3]): 8.4 µM; relative efficacy, % of maximal induction to TCDD (AHR [2]; [8]): 68%
5 | C[C@@H]1C[C@H]2[C@@H]3CCC4=CC(=O)C=C[C@]4(C)[C@@]3(F)[C@@H](O)C[C@]2(C)[C@@]1(O)C(=O)CO [DEX, dexamethasone] |  |  |  | fold induction at 0.1 µM [4]: 22
6 | Clc1cc2c(cc1Cl)Oc1cc(Cl)c(Cl)cc1O2 [TCDD, 2,3,7,8-tetrachlorodibenzo-p-dioxin, reference compound] |  |  |  | fold induction at 0.005 µM (AHR [2]; read-out: fold induction of luciferase activity, AZ-AHR cells, 4 h, TCDD 5 nM, over control cells): ~200
7 | OCCc1c[nH]c2ccccc12 [IET, indole-3-ethanol] | medium efficacy | 29.3 ± 8.2 | medium | 
8 | O=C(O)Cc1c[nH]c2ccccc12 [IAA, indole-3-acetate] | no or low efficacy |  |  | 
9 | O=C(O)C(=O)Cc1c[nH]c2ccccc12 [IPY, indole-3-pyruvate] | high-efficacy |  | high | EC50 (AHR [3]): 24.4 ± 12 µM; relative efficacy, % of maximal induction to TCDD (AHR [2]; [8]): 77%
10 | NC(=O)Cc1c[nH]c2ccccc12 [IAD, indole-3-acetamide] | high-efficacy | 4.5 | high | relative efficacy, % of maximal induction to TCDD (AHR [2]; [8]): 84%
11 | c1ccc2[nH]ccc2c1 [IND, Indole] | high-efficacy | 37.6 ± 14.4 |  | AHR activation compared with TCDD (AHR [5]): stronger than TCDD; toxicity at very high concentrations (AZ-AHR cells): toxic; EC50 (AHR [1]): ~1500 µM; EC50 (AHR [6]): ~3 µM; efficacy class of AHR agonist based on magnitude of luciferase induction (AHR [2]): high; indole concentrations under which AHR was saturated (AHR [2]): > 20 µM
12 | C=C1CC[C@H](O)C/C1=C/C=C1\CCC[C@]2(C)[C@@H]([C@H](C)CCCC(C)C)CC[C@@H]12 [VD3, cholecalciferol] |  |  |  | fold induction at 0.075 µM (vitamin D receptor (VDR)): 65
13 | O=C(O)C(O)Cc1c[nH]c2ccccc12 (centres unmarked) [ILA, indole-3-lactate] | no or low efficacy |  |  | 
14 | Cc1c[nH]c2ccccc12 [3MI, 3-methylindole] | medium efficacy | 8.4 | medium | 
15 | C[C@]12CCC(=O)C[C@@H]1CC[C@@H]1[C@@H]2CC[C@]2(C)[C@@H](O)CC[C@@H]12 [DHT, 5α-dihydrotestosterone] |  |  |  | fold induction (androgen receptor (AR)): 20 fold
16 | CCCCC/C=C/C=C1/C(=O)C=C[C@@H]1C/C=C\CCCC(=O)O [15d-PGDJ, 15-Deoxy-δ12,14-Prostaglandin J2] |  |  |  | fold induction [7]: 3 fold
